Source: patent publication US8431715B2, “Thiazole compound (as PPARδ) ligand and pharmaceutical, cosmetic and health food comprised thereof” (Seoul National University Industry Foundation, priority 2007, dated 2013)
Read-outs that look alike come from different tables or passages of the source.

Columns and labels:
mice = assay: GTT (glucose tolerance test), diabetes improving effect; format: in vivo; conditions: glucose 1.5 g/Kg intra-abdominal, oral pre-treatment 78 days
Protocol: GTT (glucose tolerance test) was performed to confirm the diabetes improving effect of the compound of the present invention. Glucose (1.5 g/Kg) was intra-abdominally administered to the mice pre-treated orally with samples for 78 days. Blood glucose was measured every hour. Fasting blood glucose was lower in the group treated with the compound of the present invention than in the group treated with vehicle or GW501516.

C57BL/6 mice [1] = assay: Hyperlipidemia improving effect, blood HDL level; format: in vivo; conditions: 10 mg/kg/day oral, high fat feeds, 6 weeks, serum
Protocol: In vivo animal test using C57BL/6 (SLC Co.) mice at 6 weeks was performed to confirm the hyperlipidemia improving effect of the compound of the present invention. […] 6 weeks later, blood was taken from orbital veins. Serum was separated and blood HDL level was measured by biochemical method.

C57BL/6 mice [2] = assay: Obesity inhibitory effect, high-fat feed; format: in vivo; conditions: 10 mg/Kg/day oral, 35% fat feed for 35 days; vehicle 58.9%
Protocol: An animal test using mice was performed to confirm the in vivo effect of the compound of the present invention. C57BL/6 (SLC Co.) mice at 14 weeks were used. To induce obesity, feeds containing 35% fat were given.

PPARδ [3] = target: T1, PPARδ (Homo sapiens, UniProt Q03181); conditions: literature; cited from earlier work
T1 sequence (Q03181 1-441): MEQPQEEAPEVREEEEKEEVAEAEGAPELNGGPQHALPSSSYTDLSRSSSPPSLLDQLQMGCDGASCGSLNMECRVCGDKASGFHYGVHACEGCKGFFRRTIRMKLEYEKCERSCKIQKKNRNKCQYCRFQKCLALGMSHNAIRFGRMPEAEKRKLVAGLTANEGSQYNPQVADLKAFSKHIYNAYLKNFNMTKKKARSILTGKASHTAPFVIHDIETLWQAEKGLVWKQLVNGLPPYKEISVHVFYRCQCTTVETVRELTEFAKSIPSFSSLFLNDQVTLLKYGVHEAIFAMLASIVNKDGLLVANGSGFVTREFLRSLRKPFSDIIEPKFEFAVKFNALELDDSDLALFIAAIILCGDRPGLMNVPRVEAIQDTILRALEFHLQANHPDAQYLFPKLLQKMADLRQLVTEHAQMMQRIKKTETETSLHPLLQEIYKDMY

PPARγ = target: T2, PPARγ (Homo sapiens, UniProt P37231); assay: Transfection assay (luciferase reporter) in CV-1 cells, PPARγ; format: cell-based; conditions: 24 hours treatment
T2 construct: Full length PPARs plasmid DNA, reporter DNA confirming PPARs activity owing to its luciferase activity; expressed in transfected cells; host or cells: CV-1 cells
T2 sequence (P37231 1-505): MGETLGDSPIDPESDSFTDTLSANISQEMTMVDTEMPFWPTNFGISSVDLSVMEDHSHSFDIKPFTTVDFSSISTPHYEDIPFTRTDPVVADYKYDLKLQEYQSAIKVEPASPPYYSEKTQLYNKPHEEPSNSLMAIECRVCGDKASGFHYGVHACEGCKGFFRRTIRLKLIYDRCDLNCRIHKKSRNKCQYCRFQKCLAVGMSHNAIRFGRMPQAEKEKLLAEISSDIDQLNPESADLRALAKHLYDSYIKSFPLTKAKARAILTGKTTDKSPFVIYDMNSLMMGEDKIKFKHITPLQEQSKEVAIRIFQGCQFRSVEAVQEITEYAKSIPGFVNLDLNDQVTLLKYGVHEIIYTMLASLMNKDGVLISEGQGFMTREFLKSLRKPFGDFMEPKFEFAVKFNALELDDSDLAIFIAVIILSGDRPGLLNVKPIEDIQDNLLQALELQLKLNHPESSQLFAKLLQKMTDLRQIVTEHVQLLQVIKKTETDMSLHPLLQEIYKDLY
Protocol: (§1) The PPARδ activities of the R-form compound represented by formula 1 of the present invention and the S-form compound represented by formula 2 were measured by transfection assay. In addition, the selectivity to PPAR subtypes, PPARα and PPARγ, was examined. Cytotoxicity was tested by MTT assay and in vivo activity and toxicity was investigated by animal experiment using mice.
(§2) CV-1 cells were used in this assay. The cells were inoculated in a 96-well plate containing DMEM supplemented with 10% FBS, DBS (delipidated) and 1% penicillin/streptomycin and cultured in a 37 °C, 5% CO2 incubator. The experiment was performed according to the steps of inoculation, transfection, sample treatment and confirmation. Particularly, CV-1 cells were inoculated in a 96 well-plate (5000 cells/well), followed by transfection 24 hours later. Full length PPARs plasmid DNA, reporter DNA confirming PPARs activity owing to its luciferase activity, β-galactosidase DNA providing information on transfection efficiency, and transfection reagent were used for the transfection. The compounds of formula 1 and formula 2 were dissolved in dimethylsulfoxide (DMSO), which were treated to the cells via media at different concentrations. […] Luciferase activity and β-galactosidaseactivity were measured with Luminometer and a microplate reader. […] A graph was made with those values and EC50 was calculated.

PPARδ [4] = target: T1, PPARδ; assay: Transfection assay (luciferase reporter) in CV-1 cells, PPARδ; format: cell-based; parameters: Full length PPARs plasmid DNA, reporter DNA confirming PPARs activity owing to its luciferase activity; expressed in transfected cells; host or cells: CV-1 cells; conditions: CV-1 cells, 24 hours treatment
Protocol: as §1
CV-1 cells were used in this assay. The cells were inoculated in a 96-well plate containing DMEM supplemented with 10% FBS, DBS (delipidated) and 1% penicillin/streptomycin and cultured in a 37 °C, 5% CO2 incubator. The experiment was performed according to the steps of inoculation, transfection, sample treatment and confirmation. Particularly, CV-1 cells were inoculated in a 96 well-plate (5000 cells/well), followed by transfection 24 hours later. Full length PPARs plasmid DNA, reporter DNA confirming PPARs activity owing to its luciferase activity, β-galactosidase DNA providing information on transfection efficiency, and transfection reagent were used for the transfection. The compounds of formula 1 and formula 2 were dissolved in dimethylsulfoxide (DMSO), which were treated to the cells via media at different concentrations. After culturing the cells in the incubator for 24 hours, the cells were lysed by using lysis buffer. Luciferase activity and β-galactosidaseactivity were measured with Luminometer and a microplate reader. The obtained values of luciferase were modified by the values of β-galactosidase. A graph was made with those values and EC50 was calculated.

CV-1 cells = assay: MTT assay, cytotoxicity; format: cell-based; conditions: 24 hours, even at the concentration of 100,000 times the EC50 value
Protocol: MTT assay was performed to test cytotoxicity of the compounds of the present invention. MTT is a yellow substance soluble in water, but when it is introduced into a living cell, it turns into a purple insoluble crystal by dehydrogenase in mitochondria. Cytotoxicity can be confirmed by measuring OD550 after dissolving MTT in dimethylsulfoxide. The experiment was performed as follows.
CV-1 cells were inoculated in a 96-well plate (5000 cells/well). The cells were cultured in a 37[…] 5% CO2 incubator for 24 hours, and treated with the compounds of formula 1 and formula 2 at different concentrations. Then, the cells were cultured for 24 hours again, to which MTT reagent was added. After culturing for 15 minutes, the generated purple crystals were dissolved in dimethylsulfoxide. Optical density was measured with a microplate reader to confirm cytotoxicity.

PPARα = target: T3, PPARα (Homo sapiens, UniProt Q07869); assay: Transfection assay (luciferase reporter) in CV-1 cells, PPARα; format: cell-based; conditions: 24 hours treatment
T3 construct: Full length PPARs plasmid DNA, reporter DNA confirming PPARs activity owing to its luciferase activity; expressed in transfected cells; host or cells: CV-1 cells
T3 sequence (Q07869 1-468): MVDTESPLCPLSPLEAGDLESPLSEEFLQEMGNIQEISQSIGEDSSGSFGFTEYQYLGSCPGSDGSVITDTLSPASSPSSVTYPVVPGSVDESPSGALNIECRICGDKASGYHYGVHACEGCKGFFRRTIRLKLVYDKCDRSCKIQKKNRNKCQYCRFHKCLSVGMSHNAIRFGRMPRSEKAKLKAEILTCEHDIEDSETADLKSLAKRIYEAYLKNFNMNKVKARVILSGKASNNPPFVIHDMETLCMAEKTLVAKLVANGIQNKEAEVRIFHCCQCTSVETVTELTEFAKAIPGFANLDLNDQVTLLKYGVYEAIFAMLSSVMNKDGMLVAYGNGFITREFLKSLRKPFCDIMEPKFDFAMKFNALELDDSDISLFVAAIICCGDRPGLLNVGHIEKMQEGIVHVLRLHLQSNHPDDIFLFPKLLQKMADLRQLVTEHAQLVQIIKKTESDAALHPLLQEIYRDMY
Protocol: as §1, §2

With `Cc1cc(SCc2sc(-c3ccc(C(F)(F)F)cc3)nc2C)ccc1OCC(=O)O` [GW501516, [2-methyl-4-[[[4-methyl-2-[4-(trifluoromethyl)phenyl]-1,3-thiazol-5-yl]methyl]sulfanyl]phenoxy]acetic acid, reference compound] the “blood glucose compared with vehicle” value (mice) was “lower blood glucose than the vehicle treated group”, the “recovery of blood glucose level to normal” value (mice) was “not recovered to normal” and the “HDL level increase compared with the control” value (C57BL/6 mice [1]) was 36.3%. It also gave a weight increase (C57BL/6 mice [2]) of 26.5%.
In the case of `CCCc1c(OCCCOc2ccc(OCC(=O)O)cc2)ccc(C(C)=O)c1O` [L-165041], the EC50 (PPARδ [3]) is given as 0.53 µM and the “selectivity to hPPARδ over PPARα or PPARγ” value (PPARδ [3]) is given as 10 times.
In the case of `Cc1cc(S[C@@H](Cc2ccccc2)c2sc(-c3ccc(C(F)(F)F)cc3)nc2C)ccc1OCC(=O)O` [formula 2], the “EC50 PPARγ” value (PPARγ) is reported as “ia”, the EC50 (PPARδ [4]) is reported as 0.0051 µM and the cytotoxicity (CV-1 cells) is reported as “not to have cytotoxicity”. For the same compound, the “EC50 PPARα” value (PPARα) was “ia”.
